US20230174576A1, “BETA-STRAND BRIDGE PEPTIDE” (Xeno-Interface Inc., priority 2020, published 2023)

System: HeLa cells
Experiment: Cell membrane permeability assay, evaluation by FACS
Type: cell-based
Conditions: FITC-labeled peptide 0.1 μM, 37° C.
Experimental: HeLa cells are grown in DMEM containing 10% fetal bovine serum and penicillin/streptomycin, treated with trypsin, washed twice with medium using a centrifuge, and seeded into multi-well plates for overnight incubation. FITC-labeled peptides are added to the cells at 37° C. and the cells are incubated at 37° C. The cells are washed twice with medium and twice with PBS, and treated with trypsin at 37° C. HeLa cells are collected and centrifuged, washed twice with medium and twice with PBS, and PBS containing propidium iodide is added to the cell. The cell membrane permeability of the peptides is quantitatively analyzed by FACS.
(Evaluation of Cell Membrane Permeability by FACS)

Mean: FITC-A: 3192
Substance: Ac—W I F [K] H R—NH2 [WT]
